Experimental data: patent US20210395235A1, “COMPOUND AS TGF-beta R1 INHIBITOR AND APPLICATION THEREOF” (NANJING SANHOME PHARMACEUTICAL CO., LTD., priority 2018, published 2021)

What was measured:
ALK5 = molecular target: T1, ALK5 (Homo sapiens, UniProt P36897); assay: In vitro activity against ALK5 kinase (ADP-Glo Kinase Assay); type: biochemical; conditions: 28° C. 120 minutes
T1 construct: purchased Carna 09-141
T1 sequence (P36897 162-503 limits assumed): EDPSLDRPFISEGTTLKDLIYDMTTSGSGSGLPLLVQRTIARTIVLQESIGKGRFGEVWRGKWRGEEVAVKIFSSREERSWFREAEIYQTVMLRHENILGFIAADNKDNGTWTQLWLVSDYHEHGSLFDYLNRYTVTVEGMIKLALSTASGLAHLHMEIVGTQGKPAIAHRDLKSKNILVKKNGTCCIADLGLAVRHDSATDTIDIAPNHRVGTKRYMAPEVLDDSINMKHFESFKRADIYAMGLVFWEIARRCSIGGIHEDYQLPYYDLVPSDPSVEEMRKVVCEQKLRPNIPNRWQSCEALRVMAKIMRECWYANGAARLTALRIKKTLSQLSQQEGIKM
Description: For the compounds of the present disclosure prepared in the above examples, each compound was prepared into 10 mM with DMSO, and then diluted to 3.333 μM, 1.111 μM, 370 nM, 123 nM, 41 nM, 14 nM, 4.6 nM, 1.5 nM and 0.5 nM successively.
Reagents: ALK5, Cat. No. 09-141, purchased from Carna; p38α, Cat. No. 04-152, purchased from the Carna; TGFβR1 peptides, Cat. No. T36-58, purchased from SignalChem; dimethyl sulfoxide (DMSO), purchased from Sigma, US; EDTA, purchased from Sigma, US; and ADP-Glo Kinase Assay, Cat. No. v9102/3, 1×Kinase buffer (40 mM Tris, pH7.5, 0.10% BSA, 20 mM MgCl2, 1 mM DTT), purchased from Promega, and prepared immediately before use.
2.2.1.1 Preparation of 50-fold compounds: The compounds were prepared into 500 μM, 50-fold concentration as the final concentration 10 μM for detecting the compounds, which was performed as following: into a second well of a 96-well plate, 95 μl of 100% DMSO was added, and then 5 μl of the 10 mM compound solution was added, to prepare a […] compound solution; into other wells, 60 μl of 100% DMSO was added; from the second well, 30 μl of the compound was drawn out and added into a third well; such 3-fold serial dilution was continued successively until 10 dilutions of concentration were made.
The kinase was added to a 1× kinase buffer, to form a 2× enzyme solution. 2.5 μl of the 2× enzyme solution was added to a 384-well reaction plate which already contained 100 nl of 100% DMSO-dissolved compound, to incubate at room temperature for 10 minutes.
FAM labeled peptides and ATP were added to the 1× kinase buffer, to form a 2× substrate solution. 2.5 μl of the 2× substrate solution was added to the 384-well reaction plate.
The 384-well plate was incubated at 28° C. for 120 minutes.
2.5.1 An ADP-Glo reagent was equilibrated to room temperature.
2.5.2 5 μl of the reaction solution was transferred into a reaction well at another new 384-well plate.
2.5.3 5 μl of the ADP-Glo reagent was transferred into the reaction well at the 384-well plate to stop the reaction.
2.5.4 An incubation was performed at 28° C. for 120 minutes.
2.5.5 10 μl of a kinase detection reagent was transferred into each reaction well, shaken for 1 minute, and was allowed to stand for 30 minutes at room temperature.
The luminescence value of the sample was read from Envision.
2.7.1 Luminescence reading data were copied from the Envision program.
2.7.2 The values of the luminescence reading were converted into the percent inhibition by the following formula.
Percent inhibition=(max−sample RLU)/(max−min)×100, where “min” stands for the fluorescence reading of the control sample with no enzyme added to the reaction; and “max” stands for the fluorescence reading of the sample with DMSO added as a control.
2.7.3 The date were imported into MS Excel and subjected to curve fitting using XLFit excel add-in version 5.4.0.8 and a fitting formula: Y=Bottom+(Top−Bottom)/(1+(IC50/X)^HillSlope).

[1] = test system: TGFβ-ALK5-SMAD2/3 signaling pathway in Luc-Smad2/3-NIH3T3 cells; assay: In vitro cell luciferase assay in Luc-Smad2/3-NIH3T3 cells stimulated with TGFβ1; type: cell-based; conditions: Mus musculus; TGFβ1 4 ng/mL, 2% FBS medium, luciferase chemiluminescence
Description: Test compounds: For the compounds of the present disclosure prepared in the above examples, each compound was prepared into 4 mM using DMSO. Then, a 4-fold serial dilution was made to obtain 20000.00 nM, 5000.00 nM, 1250.00 nM, 312.5 nM, 78.125 nM, 19.53 nM, 4.88 nM and 1.22 nM successively.
Luc-Smad2/3-NIH3T3 mouse fibroblasts (engineered to overexpress SMAD2,3-responsive promoter) were provided by a laboratory of China Pharmaceutical University.
Reagents: DMEM, purchased from Invitrogen, US; FBS, purchased from Invitrogen, US; DMSO, purchased from Sigma, US; Glo Lysis Buffer, purchased from Progema, US; Bright-Glo Luciferase assay system, purchased from Promega, US; and TGFβ, purchased from PeproTech, US.
Instruments: MD SpectraMaX M3 multifunctional enzyme reader, purchased from Molecular Devices, US.
Cell recovery: The cells were dissolved by placing in a […] water bath, then transferred to a 15 mL of pre-warmed culture medium, and centrifuged at 1000 rpm for 5 minutes. After the culture medium was discarded, the cells were resuspend in 15 mL of fresh culture medium, transferred to a 10 cm dish, and placed in an incubator at 37° C. with 5% CO2 for culture. After 24 hours, the culture medium for the cells was changed with a fresh culture medium.
Cell passage: The recovered cells were transferred to a 50 mL sterile centrifuge tube and centrifuged at 1000 rpm for 5 minutes. The culture medium was discarded. The evenly dispersed cells was counted, and adjusted to an appropriate cell concentration of 15 mL of fresh culture medium, added to a 10 cm dish, and placed in an incubator at 37° C. with 5% CO2 for culture.
Luc-Smad2/3-NIH3T3 cells were cultured normally in a 10 cm culture dish until the confluence reached 80%-90%. After digestion, they were collected in a 15 mL centrifuge tube, centrifuged at 1000×g for 5 minutes to remove the supernatant, and resuspended with 1 mL of medium, then diluted 10 times and counted. The cells was diluted according to the results from the count, and transferred into a 96-well plate at 4×10^3/cells per well (100 μl of resuspended cells was added in each well).
1-2 mg of the drug was weighed (weighed in advance), and prepared into a 4 mM stock solution using DMSO. After 24 hours, the culture medium was removed. The drug was diluted with 2% FBS culture medium. 100 μl of the 1× drug solution was added to make the final concentration of the drug to be 20000.00 nM, 5000.00 nM, 1250.00 nM, 312.5 nM, 78.125 nM, 19.53 nM, 4.88 nM, and 1.22 nM. TGFβ1 was present in each well at a final concentration of 4 ng/mL, and diluted with 2% FBS culture medium together with the compounds.
The Glo Lysis Buffer and the Bright-glo luciferase assay system as well as the cells were equilibrated to room temperature. After the cell supernatant was removed, the cells were dissolved evenly by adding 100 μl of the Glo Lysis Buffer to each well with shaking slowly, and lysed at room temperature for 5 minutes. After that, to each well, 100 μl of the Bright-glo luciferase assay system was added to incubate the cells for 5 minute at room temperature with shaking for 2 minutes. Then, 180 μl of the supernatant was transferred to a white bottom 96-well plate to detect chemiluminescence signal. The detection condition was 1 s.
2.3 Data processing: Graphpad Prism 5 software was used to perform nonlinear curve fitting and data analysis to obtain IC50 by fitting.

[2] = animal models; cited from earlier work

| IC50 (ALK5) | SMILES | IC50 [1] | cardiotoxicity (such as bleeding, functional deterioration, and inflammatory injury) [2] |
| --- | --- | --- | --- |
| 5.2 nM | Cn1cc(-c2ccc3c(Oc4cn(C5CC5)nc4C4CCOCC4)ccnc3c2)cn1 [Example 7, 4-((1-cyclopropyl-3-(tetrahydro-2H-pyran-4-yl)-1H-pyrazol-4-yl)oxy)-7-(1-methyl-1H-pyrazol-4-yl)quinoline] | 81 nM |  |
| 66 nM | COc1cc2nccc(Oc3cn(C4CC4)nc3C3CCOCC3)c2cc1C(N)=O [Example 17, 4-((1-cyclopropyl-3-(tetrahydro-2H-pyran-4-yl)-1H-pyrazol-4-yl)oxy)-7-methoxyquinoline-6-carboxamide] | 131 nM |  |
| 6 nM | COc1cc2nccc(Oc3cn(C4CC4)nc3C3CCOCC3)c2cc1Nc1cnn(C)c1 [Example 18, 4-((1-cyclopropyl-3-(tetrahydro-2H-pyran-4-yl)-1H-pyrazol-4-yl)oxy)-7-methoxy-N-(1-methyl-1H-pyrazol-4-yl)quinoline-6-amine] | 87 nM |  |
| 10 nM | COc1cc2nccc(Oc3cn(C4CC4)nc3C3CCOCC3)c2cc1Nc1cnn(C2COC2)c1 [Example 19, 4-((1-cyclopropyl-3-(tetrahydro-2H-pyran-4-yl)-1H-pyrazol-4-yl)oxa)-7-methoxy-N-(1-(oxetan-3-yl)-1H-pyrazol-4-yl)quinoline-6-amine] | 203 nM |  |

Second part, the molecule before the results:

| SMILES | IC50 (ALK5) | IC50 [1] | cardiotoxicity (such as bleeding, functional deterioration, and inflammatory injury) [2] |
| --- | --- | --- | --- |
| FC(F)(F)Cn1cc2c(n1)CN(c1ccc3c(Oc4cn(C5CC5)nc4C4CCOCC4)ccnc3c1)C2 [Example 6, 4-((1-cyclopropyl-3-(tetrahydro-2H-pyran-4-yl)-1H-pyrazol-4-yl)oxy)-7-(2-(2,2,2-trifluoroethyl)-2,6-dihydropyrrolo[3,4-c]pyrazole-5(4H)-yl)quinoline] | 66 nM | 165 nM |  |
| CS(=O)(=O)c1ccc(-c2ccc3c(Oc4cn(C5CC5)nc4C4CCOCC4)ccnc3c2)cc1 [Example 15, 4-((1-cyclopropyl-3-(tetrahydro-2H-pyran-4-yl)-1H-pyrazol-4-yl)oxy)-7-(4-(methylsulfonyl)phenyl) quinoline] | 3.2 nM | 80 nM |  |
| CC(C)(O)c1cc(-c2ccc3c(Oc4cn(C5CC5)nc4C4CCOCC4)ccnc3c2)ccn1 [Example 16, 2-(4-(4-((1-cyclopropyl-3-(tetrahydro-2H-pyran-4-yl)-1H-pyrazol-4-yl)oxy)quinolin-7-yl)pyridin-2-yl)propan-2-ol] | 100 nM | 200 nM |  |
| Cc1cccc(-c2nn3c(c2-c2ccnc4ccc(C(N)=O)cc24)CCC3)n1 [Galunisertib] |  |  | certain cardiotoxicity |
